Laboratory results: patent US12357603B2, “Acyl sulfonamides for treating cancer” (Bayer Aktiengesellschaft, priority 2019, dated 2025)
pIC50: −log10 of the molar value. Read-outs that look alike come from different tables or passages of the source.

Key:
[1] = target: Recombinant human His-tagged Kat6a protein (amino acids 194-810) (Homo sapiens (Human), UniProt Q92794); assay: Kat6a activity assay (TR-FRET, acetylation of biotinylated Histone-H4-derived peptide); type: biochemical; details: 60 mins at 22° C., read-out: KAT6A-DPF/HAT domain IC50 [mol/l] (arithmetic mean)
Outline: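 TR-FRET read-out of H4 K8 acetylation, using anti-acetyl-K8 antibody and streptavidin acceptor, after anacardic acid stop; IC50 from four-parameter regression normalized to DMSO. Reaction: recombinant human Kat6a aa 194-810 (insect-cell derived), 220 nM H4 1-24 peptide, 600 nM acetyl-CoA, pH 8, 22 °C, 60 min, compounds 0.01-20 μM.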

[2] = target: Recombinant human GST-tagged Kat6b protein (431-end); assay: Kat6b activity assay (TR-FRET, acetylation of biotinylated Histone-H4-derived peptide); type: biochemical; details: 30 mins at 22° C., read-out: KAT6B activity assay IC50 [mol/l] (arithmetic mean)
Experimental: Kat6b inhibitory activities of the compounds described in the present invention were quantified using a Fluorescence Resonance Energy Transfer (TR-FRET) assay which measures acetylation of a synthetic, biotinylated Histone-H4-derived peptide by the enzyme.
In this case 50 nl DMSO were used instead of compounds. […] IC50 values were determined by regression analysis based on a 4 parameter equation (minimum, maximum, ICM, Hill; Y=Max+(Min−Max)/(1+(X/ICso) Hill) using the Screener Software (Genedata).

[3] = system: ESR1 transcription (luciferase signal in MVLN cells); assay: Repression of ESR1 transcription, luciferase reporter in MVLN cells; type: cell-based; details: inhibition of luciferase signal in MVLN cells, arithmetic mean
Outline: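 Luminescence from an ER-driven Vitellogenin A2 element–luciferase reporter was measured after 24 h of treatment of MVLN cells, in duplicate wells. Alamar Blue (2 h, 530/590 nm) served as a cell-density control.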

ZR-75-1 cells = assay: Proliferation assay ZR-75-1 (Alamar Blue, 144 h); type: cell-based; details: arithmetic mean, read-out: ZR75-1 proliferation assay, EC50 [M] (arithmetic mean)
Outline: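 Alamar Blue fluorescence (590 nm, 2 h reagent step) measured viability after 144 h compound exposure at 37 °C, 5% CO2. Compounds spanned 2.0×10E-5 to 2.0×10E-9 M in 9 dilutions at 0.2% DMSO, in triplicate, added 24 h after plating 3000 cells/well in RPMI 1640 plus 2.5% FBS.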

MDA-MB-436 cells = assay: Proliferation assay MDA-MB-436, negative control cell line (Alamar Blue, 144 h); type: cell-based; details: arithmetic mean
Outline: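 Viability read as Alamar Blue fluorescence (590 nm, 2 h) after 144 h compound exposure at 37 °C, 5% CO2. Cells seeded at 3000 per well in 2.5% FBS DMEM/Ham's F12, dosed a day later over 2.0×10E-9–2.0×10E-5 M in 9 steps with 0.2% DMSO, in triplicate.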

[4] = Homo sapiens, MDA-MB-436, 144 h

Chain of Recombinant human His-tagged Kat6a protein (amino acids 194-810) (Q92794 194-810): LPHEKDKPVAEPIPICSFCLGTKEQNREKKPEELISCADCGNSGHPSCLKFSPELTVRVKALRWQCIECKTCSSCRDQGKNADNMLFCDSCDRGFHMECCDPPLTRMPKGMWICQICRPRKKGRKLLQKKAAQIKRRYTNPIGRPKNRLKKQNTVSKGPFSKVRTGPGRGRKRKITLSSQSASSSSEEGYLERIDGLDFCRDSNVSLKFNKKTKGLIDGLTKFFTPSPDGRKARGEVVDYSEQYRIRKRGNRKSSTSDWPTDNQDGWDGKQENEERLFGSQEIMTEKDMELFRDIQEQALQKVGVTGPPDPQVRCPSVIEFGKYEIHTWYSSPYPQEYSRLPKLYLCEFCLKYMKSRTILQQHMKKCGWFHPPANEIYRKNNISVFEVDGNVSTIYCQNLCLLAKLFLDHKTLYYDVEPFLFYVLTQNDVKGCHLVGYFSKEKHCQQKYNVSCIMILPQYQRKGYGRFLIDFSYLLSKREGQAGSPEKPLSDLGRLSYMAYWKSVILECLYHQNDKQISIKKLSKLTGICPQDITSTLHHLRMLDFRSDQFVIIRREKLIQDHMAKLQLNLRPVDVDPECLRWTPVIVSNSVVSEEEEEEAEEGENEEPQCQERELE

Structure (SMILES)	pIC50 [1]	pIC50 [2]	IC50 ([3]; Homo sapiens, MVLN)	EC50 (MDA-MB-436 cells; [4])	IC50 [3]	EC50 (MDA-MB-436 cells)	EC50 (ZR-75-1 cells; Homo sapiens, ZR-75-1, 144 h)	EC50 (ZR-75-1 cells)
CN(C)c1ccc2cc(C(=O)N[S@SP1](=O)(=O)c3cccc4ccccc34)oc2c1 [Example 20, 6-(Dimethylamino)-N-(naphthalene-1-sulfonyl)-1-benzofuran-2-carboxamide]	6.98	7.05	0.343 µM	> 20 µM	–	–	2.5e-07 M	–
Cc1ccc2cccc(S(=O)(=O)NC(=O)c3cc4ccc(N(C)C)cc4o3)c2n1 [Example 21, 6-(Dimethylamino)-N-(2-methylquinoline-8-sulfonyl)-1-benzofuran-2-carboxamide]	7.63	7.57	–	–	0.0485 µM	15.3 µM	–	4.21e-08 M
CN(C)c1ccc2cc(C(=O)NS(=O)(=O)c3ccccc3Cl)oc2c1 [Example 22, N-(2-Chlorobenzene-1-sulfonyl)-6-(dimethylamino)-1-benzofuran-2-carboxamide]	6.66	6.70	0.214 µM	> 20 µM	–	–	2.02e-07 M	–
Cc1ccc(S(=O)(=O)NC(=O)c2cc3ccc(N(C)C)cc3o2)c(-c2ccccc2)c1 [Example 24, 6-(Dimethylamino)-N-(5-methyl[1,1′-biphenyl]-2-sulfonyl)-1-benzofuran-2-carboxamide]	7.51	7.31	0.181 µM	> 20 µM	–	–	1.33e-07 M	–
CCOc1cccc(-c2cccc(Cl)c2)c1S(=O)(=O)NC(=O)c1cc2ccc(N(C)C)cc2o1 [Example 25, N-(3′-Chloro-3-ethoxy[1,1′-biphenyl]-2-sulfonyl)-6-(dimethylamino)-1-benzofuran-2-carboxamide]	7.51	7.30	0.139 µM	18 µM	–	–	1.5e-07 M	–
Cc1ccc(S(=O)(=O)NC(=O)c2cc3ccc(N(C)C)cc3o2)cc1 [Example 26, 6-(Dimethylamino)-N-(4-methylbenzene-1-sulfonyl)-1-benzofuran-2-carboxamide]	6.39	6.11	0.899 µM	> 20 µM	–	–	3.89e-07 M	–
CN(C)c1ccc2cc(C(=O)NS(=O)(=O)C3CCOCC3)oc2c1 [Example 28, 6-(Dimethylamino)-N-(oxane-4-sulfonyl)-1-benzofuran-2-carboxamide]	5.26	5.57	> 20 µM	> 20 µM	–	–	4.73e-06 M	–
CN(C)c1ccc2cc(C(=O)NS(=O)(=O)c3cc(C#N)ccn3)oc2c1 [Example 29, N-(4-Cyanopyridine-2-sulfonyl)-6-(dimethylamino)-1-benzofuran-2-carboxamide]	5.20	5.23	> 20 µM	> 20 µM	–	–	1.88e-05 M	–
Cc1cc(N(C)C)cc2oc(C(=O)NS(=O)(=O)c3ccccc3-c3ccccc3)cc12 [Example 35, N-([1,1′-biphenyl]-2-sulfonyl)-6-(dimethylamino)-4-methyl-1-benzofuran-2-carboxamide]	6.34	6.18	14.9 µM	> 20 µM	–	–	6.03e-06 M	–
CN(C)c1ccc2cc(C(=O)NS(=O)(=O)c3ccccc3C(=O)O)oc2c1 [Example 36, 2-{[6-(Dimethylamino)-1-benzofuran-2-carbonyl]sulfamoyl}benzoic acid]	6.64	6.77	4.03 µM	> 20 µM	–	–	1.04e-05 M	–
CCN(CC)c1ccc2cc(C(=O)NS(=O)(=O)c3ccccc3-c3ccccc3)oc2c1 [Example 38, N-([1,1′-Biphenyl]-2-sulfonyl)-6-(diethylamino)-1-benzofuran-2-carboxamide]	6.01	5.72	4.99 µM	> 20 µM	–	–	1.45e-05 M	–
CN(CC1CC1)c1ccc2cc(C(=O)NS(=O)(=O)c3ccccc3-c3ccccc3)oc2c1 [Example 40, N-([1,1′-Biphenyl]-2-sulfonyl)-6-[(cyclopropylmethyl)(methyl)amino]-1-benzofuran-2-carboxamide]	5.94	5.85	> 20 µM	> 20 µM	–	–	> 2e-05 M	–
CCCCN(CCCC)c1ccc2cc(C(=O)NS(=O)(=O)c3ccccc3-c3ccccc3)oc2c1 [Example 41, N-([1,1′-Biphenyl]-2-sulfonyl)-6-(dibutylamino)-1-benzofuran-2-carboxamide]	5.64	5.59	14.9 µM	18.5 µM	–	–	8.3e-06 M	–
CN(C)c1ccc2cc(C(=O)NS(=O)(=O)c3ccccc3OC(C)(C)C)oc2c1 [Example 68, N-(2-tert-butoxybenzene-1-sulfonyl)-6-(dimethylamino)-1-benzofuran-2-carboxamide]	7.16	7.07	0.051 µM	> 20 µM	–	–	8.44e-08 M	–

The next lines start with results.

pIC50 [1]	pIC50 [2]	IC50 ([3]; Homo sapiens, MVLN)	EC50 (MDA-MB-436 cells; [4])	IC50 [3]	EC50 (MDA-MB-436 cells)	Structure (SMILES)	EC50 (ZR-75-1 cells; Homo sapiens, ZR-75-1, 144 h)	EC50 (ZR-75-1 cells)
5.97	5.44	> 20 µM	> 20 µM	–	–	Nc1ccc2cc(C(=O)NS(=O)(=O)c3ccccc3-c3ccccc3)oc2c1 [Example 42, 6-Amino-N-([1,1′-biphenyl]-2-sulfonyl)-1-benzofuran-2-carboxamide]	> 2e-05 M	–
5.29	4.99	> 20 µM	> 20 µM	–	–	CC(=O)Nc1ccc2cc(C(=O)NS(=O)(=O)c3ccccc3-c3ccccc3)oc2c1 [Example 43, 6-Acetamido-N-([1,1′-biphenyl]-2-sulfonyl)-1-benzofuran-2-carboxamide]	> 2e-05 M	–
5.44	5.83	6.45 µM	> 20 µM	–	–	O=C(NS(=O)(=O)c1ccccc1-c1ccccc1)c1cc2ccc(N3CCCC3)cc2o1 [Example 45, N-([1,1′-Biphenyl]-2-sulfonyl)-6-(pyrrolidin-1-yl)-1-benzofuran-2-carboxamide]	1.19e-05 M	–
5.11	4.80	> 20 µM	> 20 µM	–	–	O=C(NS(=O)(=O)c1ccccc1-c1ccccc1)c1cc2ccc(N3CCCCC3)cc2o1 [Example 47, N-([1,1′-Biphenyl]-2-sulfonyl)-6-(piperidin-1-yl)-1-benzofuran-2-carboxamide]	> 2e-05 M	–
6.51	6.28	2.47 µM	> 20 µM	–	–	CN(C)c1ccc2cc(C(=O)NS(=O)(=O)c3ccccc3-c3cccc(Cl)c3)sc2c1 [Example 49, N-(3′-Chloro[1,1′-biphenyl]-2-sulfonyl)-6-(dimethylamino)-1-benzothiophene-2-carboxamide]	5.17e-06 M	–
4.79	5.01	> 20 µM	> 20 µM	–	–	CCS(=O)(=O)NC(=O)c1cc2ccc(N(C)C)cc2o1 [Example 61, 6-(Dimethylamino)-N-(ethanesulfonyl)-1-benzofuran-2-carboxamide]	1.77e-05 M	–
4.78	< 4.70	> 20 µM	> 20 µM	–	–	CN(C)c1ccc2cc(C(=O)NS(C)(=O)=O)oc2c1 [Example 63, 6-(Dimethylamino)-N-(methanesulfonyl)-1-benzofuran-2-carboxamide]	> 2e-05 M	–
7.55	7.46	0.0204 µM	> 20 µM	–	–	CN(C)c1ccc2cc(C(=O)NS(=O)(=O)c3ccccc3OC3CC3)oc2c1 [Example 65, N-[2-(Cyclopropyloxy)benzene-1-sulfonyl]-6-(dimethylamino)-1-benzofuran-2-carboxamide]	4.44e-08 M	–
7.31	7.23	–	–	0.031 µM	> 20 µM	CC(C)Oc1ccccc1S(=O)(=O)NC(=O)c1cc2ccc(N(C)C)cc2o1 [Example 66, 6-(Dimethylamino)-N-{2-[(propan-2-yl)oxy]benzene-1-sulfonyl}-1-benzofuran-2-carboxamide]	–	5.47e-08 M
7.37	6.93	0.0402 µM	> 20 µM	–	–	CCOc1ccc(C)cc1S(=O)(=O)NC(=O)c1cc2ccc(N(C)C)cc2o1 [Example 67, 6-(Dimethylamino)-N-(2-ethoxy-5-methylbenzene-1-sulfonyl)-1-benzofuran-2-carboxamide]	4.08e-08 M	–
